Results on ten compounds are retold here after ChEMBL document CHEMBL1201862, “PubChem BioAssay data set” (2004).

What all share (test): DTP human tumour cell line panel, 48 h
The test system of assay [1] is NCI/ADR-RES.
In assay [2] the test system is KM-20L2.
The test system of assay [3] is EKVX.
The subject of assay [4] is NCI-H23.
The test system of assay [5] is NCI-H226.
Assay [6] deals with SF-539.
In assay [7] the test system is HCC 2998.
Assay [8] has as its system CAKI-1.
The test system of assay [9] is COLO 205.
Assay [10] deals with DMS-114.
Assay [11] concerns U-251.
The subject of assay [12] is UO-31.
The subject of assay [13] is SNB-78.
Assay [14] deals with MDA-MB-435.
Assay [15] concerns MDA-MB-231.
Assay [16] deals with Hs-578T.
The subject of assay [17] is M14.
Assay [18] concerns T47D.
The subject of assay [19] is BT-549.

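Values below derive from 48-hour exposures of cells grown in 96-well plates, with endpoints linearly interpolated between the two concentrations bracketing the appropriate inhibition level. At the GI50, growth is halved.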 Activity calls are given as the source filed them. Cut-off read from the data, not from the text of the source: active = GI50 up to about 1.1 µM and inactive = higher.

In the case of `CCCNC(=O)C(C)C1CCC2(C)C=CC(=O)C(C)=C2C1O` (stereo not drawn), the GI50 in assay [1], in [2], in assay [3], in [4], in assay [5] and in [6] was > 100 µM (inactive) throughout. For the same compound, the GI50 in assay [7], in [8], in assay [9], in [10], in assay [11] and in assay [12] was > 100 µM (inactive) in each case.
`C[C@H]1COC(c2ccccn2)=N1`: the GI50 in assay [1], in assay [2], in assay [13], in assay [3], in [4] and in [5] was > 100 µM (inactive) each time. In addition, the GI50 in assay [6], in [7], in [8], in [9], in assay [11] and in [12] was > 100 µM (inactive) each time.
Turning to `COc1ccc2cc(CN3CCC(C4CCN(Cc5ccc6cc(OC)ccc6c5)CC4)CC3)ccc2c1`, the GI50 in assay [14] is 1.69 µM (inactive); in [15], 2.52 µM (inactive); in [1], 6.82 µM (inactive); in [3], 11.9 µM (inactive); in [4], 17.1 µM (inactive); in assay [16], 4.61 µM (inactive). In addition, the GI50 in [5] is 16.6 µM (inactive); in [6], 3.19 µM (inactive); in [7], 0.18 µM (active); in assay [8], 2.73 µM (inactive); in assay [9] it was 1.78 µM (inactive); in assay [11], 2.52 µM (inactive). The GI50 in assay [17] was 2.33 µM (inactive); in [18], 1.93 µM (inactive); in [12], 3.14 µM (inactive); in [19] it was > 10 µM (inactive).
On to `CC1=CCC2CC1C(C(=O)c1c[nH]c3ccccc13)=NC2(C)C` (stereo not drawn), for which the GI50 is 47.8 µM (inactive) in assay [14]; 51.9 µM (inactive) in assay [15]; 59.3 µM (inactive) in [1]; 33.3 µM (inactive) in [3]; 87.7 µM (inactive) in [4]; 41.9 µM (inactive) in [16]. The GI50 is > 100 µM (inactive) in [5]; > 100 µM (inactive) in assay [6]; > 100 µM (inactive) in assay [7]; > 100 µM (inactive) in [8]; 52.2 µM (inactive) in assay [9]; 34.5 µM (inactive) in assay [11]. Besides, the GI50 is 41.5 µM (inactive) in [17], 29.4 µM (inactive) in [18], 48.8 µM (inactive) in assay [12] and 40 µM (inactive) in assay [19].
With `Oc1ccc(-c2nc3ccc4ccccc4c3c3c2CCCC3)c(O)c1`, the GI50 is 16.9 µM (inactive) in assay [14]; 12.9 µM (inactive) in assay [15]; > 100 µM (inactive) in assay [1]; 28.8 µM (inactive) in [3]; 27.9 µM (inactive) in assay [4]; 24.2 µM (inactive) in [16]. Also, the GI50 in assay [5] is > 63 µM (inactive); in [6], 42.3 µM (inactive); in [7] it was 36.5 µM (inactive); in assay [8], 42.5 µM (inactive); in assay [9], 11.1 µM (inactive); in [11], 4.1 µM (inactive). Moreover, the GI50 was 15.2 µM (inactive) in assay [17], 7.5 µM (inactive) in [18], 29.9 µM (inactive) in [12] and 32.7 µM (inactive) in assay [19].
In the case of `O=C(O)CNC(=O)c1cccc2c(=O)c3ccccc3[nH]c12`, the GI50 in assay [14], in assay [15], in [1], in [3], in assay [4] and in [16] was > 100 µM (inactive) in each case. Moreover, the GI50 in assay [5], in assay [6], in [7], in [8], in [9] and in assay [11] was > 100 µM (inactive) throughout. For the same compound, the GI50 in assay [17] is > 100 µM (inactive); in assay [18], > 100 µM (inactive); in assay [12], 70.1 µM (inactive); in assay [19], 91.8 µM (inactive).
`C=C1N(C)c2ccc(S(=O)(=O)c3ccc4c(c3)C(C)(C)C(=C)N4C)cc2C1(C)C`: the GI50 was 30.8 µM (inactive) in assay [14]; 33.6 µM (inactive) in assay [15]; 59 µM (inactive) in assay [1]; 30.9 µM (inactive) in [3]; 27.4 µM (inactive) in assay [4]; 24.3 µM (inactive) in assay [16]. Further, the GI50 is > 100 µM (inactive) in assay [5]; > 100 µM (inactive) in assay [6]; 34.5 µM (inactive) in assay [7]; 62.4 µM (inactive) in assay [8]; 16.3 µM (inactive) in [9]; 31.5 µM (inactive) in [11]. The GI50 in assay [17] is 31.2 µM (inactive); in [18], 24.2 µM (inactive); in assay [12], 51.6 µM (inactive); in assay [19] it was 26.1 µM (inactive).
In the case of `CCOC(=O)C(SCCO)C(C(=O)OCC)n1ccc(=O)[nH]c1=O` (stereo not drawn), the GI50 in [14] was 22.4 µM (inactive); in assay [15] it was 35.8 µM (inactive); in assay [1] it was 25.4 µM (inactive); in [3], 75.9 µM (inactive); in [4], 34.3 µM (inactive); in assay [16] it was 36.6 µM (inactive). The GI50 in assay [5] was > 35.6 µM (inactive); in assay [6] it was 31.5 µM (inactive); in assay [7], > 71.8 µM (inactive); in assay [8] it was 7.83 µM (inactive); in assay [9], 17.6 µM (inactive); in assay [11], 27.6 µM (inactive). The GI50 was 27.3 µM (inactive) in [17], 38.1 µM (inactive) in [18], > 92 µM (inactive) in assay [12] and > 58.7 µM (inactive) in assay [19].
In the case of `CC(=O)OC(C)C(=O)C1c2cccc(O)c2C(=O)c2c(O)cc(C)cc21` (stereo not drawn), the GI50 in assay [2] was 1.37 µM (inactive); in assay [13] it was 0.753 µM (active); in assay [3], 1.36 µM (inactive); in assay [4], 0.324 µM (active); in [5], 0.319 µM (active); in assay [6], 0.254 µM (active). The GI50 in assay [7] is 0.429 µM (active); in [8] it was 1.71 µM (inactive); in assay [9], 1.65 µM (inactive); in assay [10] it was 0.188 µM (active); in assay [11], 0.26 µM (active); in assay [12], 0.261 µM (active).
`CC(=O)Nc1cccc2[nH]c3ccccc3c(=O)c12`: the GI50 is 21.1 µM (inactive) in assay [2]; 25.1 µM (inactive) in assay [3]; 12.3 µM (inactive) in [4]; 14.8 µM (inactive) in [5]; 21.6 µM (inactive) in assay [6]; 12.2 µM (inactive) in assay [8]. Moreover, the GI50 in [9] is 16.3 µM (inactive); in [10], 25.6 µM (inactive); in assay [11] it was 24.1 µM (inactive); in [17], 30.9 µM (inactive); in [12], 10.2 µM (inactive).
